Test results from US12365696B2, “Small-molecule focal adhesion kinase (FAK) inhibitors” (DANA-FARBER CANCER INSTITUTE, INC., priority 2019, dated 2025).
Where two headings read alike, the source gives them in different places.

How the values were obtained:
Assay type in all cases: binding
[1] = tested on: 403 non-mutant kinases; test: KINOMEscan panel selectivity (S-Score, number of kinases engaged); settings: 10 μM; for S-Score (35): non-mutant kinases below 35% control divided by kinases examined
Protocol: Selectivity profiling of compound 3 among a panel of kinases was performed with KINOMEscan® as set forth below. The KINOMEscan® screening platform employs an active site-directed competition binding assay to quantitatively measure interactions between a test compound, e.g., compound 3, and more than 450 kinases and disease-relevant mutant variants.
Screening of compound 3 was conducted at a concentration of 10 μM by Eurofins DiscoverX. Activity is measured as the ability of compound 3 to displace the kinase from a solid support relative to a negative control (i.e., DMSO). The output is % control.
The selectivity score (S-Score) refers to the number of non-mutant kinases that display a % control below a specific number, divided by the number of non-mutant kinases that were examined.
Selectivity profiling of compound 5 among a panel of kinases was performed with KINOMEscan® as set forth below.

[2] = biological target: ABL1(M351T)-phosphorylated (Homo sapiens (Human), UniProt P00519, M351T); test: KINOMEscan; settings: 10000 nM, read-out: Percent Control
[3] = biological target: BMPR1A (Homo sapiens (Human), UniProt P36894); test: KINOMEscan; settings: 10000 nM, read-out: Percent Control
[4] = biological target: BRK (Homo sapiens (Human), UniProt Q13882); test: KINOMEscan; settings: 10000 nM, read-out: Percent Control
[5] = biological target: CAMK1B (Homo sapiens (Human), UniProt Q6P2M8); test: KINOMEscan; settings: 10000 nM, read-out: Percent Control
[6] = biological target: CDK3 (Homo sapiens (Human), UniProt Q00526); test: KINOMEscan; settings: CDK3, 10000 nM; read-out: Percent Control
[7] = biological target: CDKL3 (Homo sapiens (Human), UniProt Q8IVW4); test: KINOMEscan; settings: CDKL3, 10000 nM; read-out: Percent Control
[8] = biological target: CSNK1A1L (Homo sapiens (Human), UniProt Q8N752); test: KINOMEscan; settings: 10000 nM, read-out: Percent Control
[9] = biological target: DRAK2 (Homo sapiens (Human), UniProt O94768); test: KINOMEscan; settings: DRAK2, 10000 nM; read-out: Percent Control
[10] = biological target: EPHB3 (Homo sapiens (Human), UniProt P54753); test: KINOMEscan; settings: EPHB3, 10000 nM; read-out: Percent Control
[11] = biological target: ERK4 (Homo sapiens (Human), UniProt P31152); test: KINOMEscan; settings: ERK4, 10000 nM; read-out: Percent Control
[12] = tested on: FLT3(ITD, D835V); test: KINOMEscan; settings: 10000 nM
[13] = biological target: GAK (Homo sapiens (Human), UniProt O14976); test: KINOMEscan; settings: 10000 nM, read-out: Percent Control
[14] = biological target: GRK2 (Homo sapiens (Human), UniProt P25098); test: KINOMEscan; settings: GRK2, 10000 nM; read-out: Percent Control
[15] = biological target: GRK4 (Homo sapiens (Human), UniProt P32298); test: KINOMEscan; settings: GRK4, 10000 nM; read-out: Percent Control
[16] = biological target: INSR (Homo sapiens (Human), UniProt P06213); test: KINOMEscan; settings: 10000 nM, read-out: Percent Control
[17] = biological target: KIT(V559D) (Homo sapiens (Human), UniProt P10721, V559D); test: KINOMEscan; settings: 10000 nM, read-out: Percent Control
[18] = biological target: MAP4K4 (Homo sapiens (Human), UniProt O95819); test: KINOMEscan; settings: MAP4K4, 10000 nM; read-out: Percent Control
[19] = biological target: MARK3 (Homo sapiens (Human), UniProt P27448); test: KINOMEscan; settings: MARK3, 10000 nM; read-out: Percent Control
[20] = biological target: MEK4 (Homo sapiens (Human), UniProt P45985); test: KINOMEscan; settings: MEK4, 10000 nM; read-out: Percent Control
[21] = biological target: PCTK1 (Homo sapiens (Human), UniProt Q00536); test: KINOMEscan; settings: PCTK1, 10000 nM; read-out: Percent Control
[22] = biological target: PHKG1 (Homo sapiens (Human), UniProt Q16816); test: KINOMEscan; settings: PHKG1, 10000 nM; read-out: Percent Control
[23] = biological target: PKNB(M. tuberculosis) (Mycobacterium tuberculosis (strain ATCC 25618 / H37Rv), UniProt P9WI81); test: KINOMEscan; settings: read-out: Percent Control
[24] = biological target: RET(V804L) (Homo sapiens (Human), UniProt P07949, V804L); test: KINOMEscan; settings: 10000 nM, read-out: Percent Control
[25] = biological target: ROCK2 (Homo sapiens (Human), UniProt O75116); test: KINOMEscan; settings: ROCK2, 10000 nM; read-out: Percent Control
[26] = biological target: S6K1 (Homo sapiens (Human), UniProt P23443); test: KINOMEscan; settings: S6K1, 10000 nM; read-out: Percent Control
[27] = biological target: SgK110 (Homo sapiens (Human), UniProt P0C264); test: KINOMEscan; settings: SgK110, 10000 nM; read-out: Percent Control
[28] = biological target: SGK2 (Homo sapiens (Human), UniProt Q9HBY8); test: KINOMEscan; settings: SGK2, 10000 nM; read-out: Percent Control
[29] = biological target: SNARK (Homo sapiens (Human), UniProt Q9H093); test: KINOMEscan; settings: 10000 nM, read-out: Percent Control
[30] = biological target: SRMS (Homo sapiens (Human), UniProt Q9H3Y6); test: KINOMEscan; settings: 10000 nM, read-out: Percent Control

Chain of GRK2 (P25098 whole entry): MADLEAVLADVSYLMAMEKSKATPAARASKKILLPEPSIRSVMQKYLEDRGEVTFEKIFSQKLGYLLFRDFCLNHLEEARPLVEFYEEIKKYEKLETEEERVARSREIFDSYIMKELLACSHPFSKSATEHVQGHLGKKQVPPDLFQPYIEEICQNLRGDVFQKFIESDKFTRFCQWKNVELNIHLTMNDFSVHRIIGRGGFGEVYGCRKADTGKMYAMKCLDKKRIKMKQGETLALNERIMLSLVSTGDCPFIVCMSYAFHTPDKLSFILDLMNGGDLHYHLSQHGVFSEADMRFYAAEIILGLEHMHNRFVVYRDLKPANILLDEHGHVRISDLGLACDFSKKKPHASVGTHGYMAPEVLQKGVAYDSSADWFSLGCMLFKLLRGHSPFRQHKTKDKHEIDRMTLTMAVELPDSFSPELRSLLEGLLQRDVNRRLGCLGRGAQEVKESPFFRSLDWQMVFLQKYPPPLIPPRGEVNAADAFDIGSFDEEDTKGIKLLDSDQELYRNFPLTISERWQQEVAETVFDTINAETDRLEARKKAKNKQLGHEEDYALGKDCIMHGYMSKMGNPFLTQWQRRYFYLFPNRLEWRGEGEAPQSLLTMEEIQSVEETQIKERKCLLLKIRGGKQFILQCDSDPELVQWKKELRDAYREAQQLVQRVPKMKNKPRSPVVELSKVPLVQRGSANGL
Chain of GRK4 (P32298 whole entry): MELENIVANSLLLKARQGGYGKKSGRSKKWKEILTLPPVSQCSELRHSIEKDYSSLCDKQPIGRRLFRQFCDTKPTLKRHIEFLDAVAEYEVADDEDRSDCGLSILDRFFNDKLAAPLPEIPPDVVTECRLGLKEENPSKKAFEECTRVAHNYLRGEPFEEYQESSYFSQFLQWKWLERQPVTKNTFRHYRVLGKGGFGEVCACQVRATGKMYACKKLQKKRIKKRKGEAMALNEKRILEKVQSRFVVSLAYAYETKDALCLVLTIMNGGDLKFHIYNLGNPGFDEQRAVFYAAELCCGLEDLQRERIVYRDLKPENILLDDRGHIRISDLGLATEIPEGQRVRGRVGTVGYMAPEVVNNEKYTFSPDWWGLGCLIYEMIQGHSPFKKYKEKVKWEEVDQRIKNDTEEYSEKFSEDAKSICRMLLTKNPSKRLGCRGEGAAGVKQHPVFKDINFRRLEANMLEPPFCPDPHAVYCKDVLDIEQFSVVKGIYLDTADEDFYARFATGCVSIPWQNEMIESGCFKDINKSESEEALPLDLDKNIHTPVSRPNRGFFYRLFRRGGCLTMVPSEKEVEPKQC
Chain of RET(V804L) (P07949 29-1114 V804L): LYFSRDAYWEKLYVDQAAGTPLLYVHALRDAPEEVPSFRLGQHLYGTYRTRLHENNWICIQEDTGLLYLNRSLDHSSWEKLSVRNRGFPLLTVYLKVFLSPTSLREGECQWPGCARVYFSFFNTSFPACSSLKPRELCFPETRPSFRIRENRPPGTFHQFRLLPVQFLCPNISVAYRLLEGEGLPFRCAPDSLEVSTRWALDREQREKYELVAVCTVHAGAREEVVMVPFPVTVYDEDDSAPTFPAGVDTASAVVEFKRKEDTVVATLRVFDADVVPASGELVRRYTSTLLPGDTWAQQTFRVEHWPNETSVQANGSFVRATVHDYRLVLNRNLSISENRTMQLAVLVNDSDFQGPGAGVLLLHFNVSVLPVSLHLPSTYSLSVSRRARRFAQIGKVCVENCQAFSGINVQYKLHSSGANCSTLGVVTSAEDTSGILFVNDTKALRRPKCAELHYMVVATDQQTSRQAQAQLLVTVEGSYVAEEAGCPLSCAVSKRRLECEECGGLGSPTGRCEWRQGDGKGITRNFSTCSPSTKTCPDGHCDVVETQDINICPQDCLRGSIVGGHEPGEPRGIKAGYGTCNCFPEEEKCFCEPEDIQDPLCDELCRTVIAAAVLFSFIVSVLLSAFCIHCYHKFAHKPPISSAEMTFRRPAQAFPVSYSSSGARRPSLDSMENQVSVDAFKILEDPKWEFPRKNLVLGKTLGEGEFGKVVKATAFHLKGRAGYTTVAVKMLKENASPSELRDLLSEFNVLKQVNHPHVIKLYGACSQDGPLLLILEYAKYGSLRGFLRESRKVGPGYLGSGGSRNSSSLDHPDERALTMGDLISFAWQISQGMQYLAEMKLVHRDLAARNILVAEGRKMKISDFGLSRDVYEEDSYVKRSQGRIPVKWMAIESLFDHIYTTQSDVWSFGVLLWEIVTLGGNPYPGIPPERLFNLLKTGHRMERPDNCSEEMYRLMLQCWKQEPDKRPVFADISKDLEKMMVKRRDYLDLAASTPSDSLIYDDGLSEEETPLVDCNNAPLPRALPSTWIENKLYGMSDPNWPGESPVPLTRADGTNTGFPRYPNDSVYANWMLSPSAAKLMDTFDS
Chain of S6K1 (P23443 whole entry): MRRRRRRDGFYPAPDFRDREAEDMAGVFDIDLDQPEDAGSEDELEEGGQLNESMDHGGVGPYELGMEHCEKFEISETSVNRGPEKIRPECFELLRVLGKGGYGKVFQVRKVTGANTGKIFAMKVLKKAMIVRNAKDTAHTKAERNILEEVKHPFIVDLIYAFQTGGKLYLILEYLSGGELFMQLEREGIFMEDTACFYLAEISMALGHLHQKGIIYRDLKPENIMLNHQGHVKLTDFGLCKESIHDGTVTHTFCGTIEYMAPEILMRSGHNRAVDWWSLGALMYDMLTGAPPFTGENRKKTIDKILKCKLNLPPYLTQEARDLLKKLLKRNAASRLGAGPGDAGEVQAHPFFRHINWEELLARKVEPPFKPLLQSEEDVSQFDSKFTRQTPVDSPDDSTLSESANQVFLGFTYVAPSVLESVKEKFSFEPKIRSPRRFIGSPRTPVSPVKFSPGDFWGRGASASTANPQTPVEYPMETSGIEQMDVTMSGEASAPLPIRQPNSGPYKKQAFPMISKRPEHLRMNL
Chain of SgK110 (P0C264 whole entry): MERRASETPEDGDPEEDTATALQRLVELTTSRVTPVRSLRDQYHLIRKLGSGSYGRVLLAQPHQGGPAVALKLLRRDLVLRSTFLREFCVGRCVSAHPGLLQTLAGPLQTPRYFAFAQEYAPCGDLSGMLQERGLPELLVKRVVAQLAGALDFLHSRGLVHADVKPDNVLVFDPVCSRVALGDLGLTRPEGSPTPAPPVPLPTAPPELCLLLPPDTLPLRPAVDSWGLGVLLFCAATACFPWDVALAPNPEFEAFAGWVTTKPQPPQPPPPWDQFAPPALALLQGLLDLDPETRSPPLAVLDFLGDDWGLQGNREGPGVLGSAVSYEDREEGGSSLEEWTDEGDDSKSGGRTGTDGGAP
Chain of PHKG1 (Q16816 whole entry): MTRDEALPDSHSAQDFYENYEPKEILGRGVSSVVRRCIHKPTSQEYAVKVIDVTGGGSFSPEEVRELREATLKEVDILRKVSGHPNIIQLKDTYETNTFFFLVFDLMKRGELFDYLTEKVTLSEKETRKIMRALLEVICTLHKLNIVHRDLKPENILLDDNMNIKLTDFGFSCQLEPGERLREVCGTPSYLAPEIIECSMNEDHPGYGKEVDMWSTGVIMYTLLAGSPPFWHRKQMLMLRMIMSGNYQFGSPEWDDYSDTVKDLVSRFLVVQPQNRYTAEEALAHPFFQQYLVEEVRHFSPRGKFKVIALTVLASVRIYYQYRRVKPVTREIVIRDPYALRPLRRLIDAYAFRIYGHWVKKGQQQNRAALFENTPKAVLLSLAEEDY
Chain of CDK3 (Q00526 whole entry): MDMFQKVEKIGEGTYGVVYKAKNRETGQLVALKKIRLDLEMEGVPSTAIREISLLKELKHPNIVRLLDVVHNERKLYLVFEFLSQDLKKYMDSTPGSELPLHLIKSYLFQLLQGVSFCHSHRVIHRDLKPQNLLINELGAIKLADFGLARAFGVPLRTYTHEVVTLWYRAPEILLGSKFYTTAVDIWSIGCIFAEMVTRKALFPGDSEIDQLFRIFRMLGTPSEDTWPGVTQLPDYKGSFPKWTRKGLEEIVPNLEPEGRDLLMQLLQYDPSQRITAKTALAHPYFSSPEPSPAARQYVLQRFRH
Chain of MEK4 (P45985 whole entry): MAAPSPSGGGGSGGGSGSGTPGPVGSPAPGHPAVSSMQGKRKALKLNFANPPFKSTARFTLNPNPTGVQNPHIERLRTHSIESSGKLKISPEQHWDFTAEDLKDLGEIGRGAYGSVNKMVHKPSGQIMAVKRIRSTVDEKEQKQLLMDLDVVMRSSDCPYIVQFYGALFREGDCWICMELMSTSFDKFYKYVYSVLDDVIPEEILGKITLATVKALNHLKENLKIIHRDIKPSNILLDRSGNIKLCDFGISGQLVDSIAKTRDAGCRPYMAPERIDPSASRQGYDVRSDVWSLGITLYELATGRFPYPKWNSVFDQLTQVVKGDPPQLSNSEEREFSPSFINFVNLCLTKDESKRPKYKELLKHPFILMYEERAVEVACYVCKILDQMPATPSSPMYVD
Chain of SNARK (Q9H093 whole entry): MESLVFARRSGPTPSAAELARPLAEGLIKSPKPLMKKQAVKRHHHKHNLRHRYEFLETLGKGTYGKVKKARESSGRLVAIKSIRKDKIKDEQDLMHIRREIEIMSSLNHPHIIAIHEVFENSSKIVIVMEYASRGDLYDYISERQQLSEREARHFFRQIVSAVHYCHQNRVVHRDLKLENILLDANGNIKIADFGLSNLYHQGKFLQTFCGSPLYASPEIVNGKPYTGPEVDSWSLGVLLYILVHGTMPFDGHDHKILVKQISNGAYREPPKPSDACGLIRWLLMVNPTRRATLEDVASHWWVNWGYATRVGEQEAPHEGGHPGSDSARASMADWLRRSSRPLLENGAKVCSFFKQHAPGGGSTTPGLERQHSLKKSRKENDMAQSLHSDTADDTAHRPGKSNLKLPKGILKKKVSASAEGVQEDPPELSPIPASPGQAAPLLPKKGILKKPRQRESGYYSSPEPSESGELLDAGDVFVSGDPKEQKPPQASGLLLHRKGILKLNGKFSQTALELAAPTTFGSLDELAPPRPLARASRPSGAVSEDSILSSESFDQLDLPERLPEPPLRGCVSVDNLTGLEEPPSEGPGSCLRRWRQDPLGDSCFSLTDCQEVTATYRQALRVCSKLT

SMILES	S-Score (35) [1]	remaining binding at 10 µM [2] [%]	remaining binding at 10 µM [3] [%]	remaining binding at 10 µM [4] [%]	remaining binding at 10 µM [5] [%]	remaining binding at 10 µM [6] [%]	remaining binding at 10 µM [7] [%]	remaining binding at 10 µM [8] [%]	remaining binding at 10 µM [9] [%]	remaining binding at 10 µM [10] [%]	remaining binding at 10 µM [11] [%]	Percent Control [12] [%]	remaining binding at 10 µM [13] [%]	remaining binding at 10 µM [14] [%]	remaining binding at 10 µM [15] [%]	remaining binding at 10 µM [16] [%]	remaining binding at 10 µM [17] [%]	remaining binding at 10 µM [18] [%]	remaining binding at 10 µM [19] [%]	remaining binding at 10 µM [20] [%]	also measured
COc1cc(N2CCC(N3CCN(C)CC3)CC2)ccc1Nc1ncc2c(n1)N(C)c1sc(C)nc1C(=O)N2 [Compound 3, 6-((2-methoxy-4-(4-(4-methylpiperazin-1-yl)piperidin-1-yl)phenyl)amino)-2,4-dimethyl-4,9-dihydro-10H-pyrimido[5,4-b]thiazolo[5,4-e][1,4]diazepin-10-one]	0.02	19	81	66	95	87	75	78	100	70	84	100	4.2	100	72	83	56	79	96	100	number of non-mutant kinases displaying <35% relative to control ([1]; out of 403 non-mutant kinases): five; number of other kinases engaged with greater than 65% inhibition ([1]; panel of 403 kinases): 4; remaining binding at 10 µM [21]: 100%; remaining binding at 10 µM [22]: 78%; remaining binding at 10 µM [23]: 91%; remaining binding at 10 µM [24]: 95%; remaining binding at 10 µM [25]: 100%; remaining binding at 10 µM [26]: 100%; remaining binding at 10 µM [27]: 86%; remaining binding at 10 µM [28]: 99%; remaining binding at 10 µM [29]: 100%; remaining binding at 10 µM [30]: 78%
COc1cc(N2CCC(N3CCN(C)CC3)CC2)ccc1Nc1ncc2c(n1)N(C)c1sc(C)nc1C(=O)N2C [Compound 5, 6-((2-methoxy-4-(4-(4-methylpiperazin-1-yl)piperidin-1-yl)phenyl)amino)-2,4,9-trimethyl-4,9-dihydro-10H-pyrimido[5,4-b]thiazolo[5,4-e][1,4]diazepin-10-one]	0.042	95	97	100	92	100	100	100	100	100	100	100	31	100	97	40	100	100	81	100	S(1) [1]: 0.005; S(10) [1]: 0.012; remaining binding at 10 µM [21]: 100%; remaining binding at 10 µM [22]: 84%; remaining binding at 10 µM ([23]; PKNB(M. tuberculosis), 10000 nM): 98%; remaining binding at 10 µM [24]: 93%; remaining binding at 10 µM [25]: 100%; remaining binding at 10 µM [26]: 100%; remaining binding at 10 µM [27]: 92%; remaining binding at 10 µM [28]: 98%; remaining binding at 10 µM [29]: 91%; remaining binding at 10 µM [30]: 97%
